System: mouse microglia
Test: IL-1β release from LPS-primed mouse microglia (ELISA)
Type: cell-based
Conditions: LPS-primed primary and immortalized mouse microglia, 10 μM
Description: For primary cultures, bone marrow-derived macrophages and microglia were isolated as described^42,43 and cultured in DMEM supplemented with L-glutamine, ciprofloxacin (Cellgro, Manassas, Va.) and 10% fetal calf serum (Hyclone, Logan, Utah) Immortalized macrophage and microglial cell lines were generated using J2 recombinant retrovirus (carrying v-myc and v-raf oncogenes)^44,45. Briefly, primary bone marrow cells were incubated in L929 conditioned medium for 3-4 days to induce macrophage differentiation. Cells were then infected with J2 recombinant retrovirus and maintained in culture until cells were growing in the absence of conditioned medium. Similarly, primary mixed glial cultures were cultured until fully confluent. After two consecutive infections with J2 retrovirus, cells were maintained in normal medium until growth of microglial cells in colonies was observed. The semi-adherent colonies of microglial cells were washed off and cultured in new flasks. […] Microglial cell lines form wild type (C57/BL6), Caspase-1^−/− and IL-IR^−/− mice as well as macrophage cell lines from wild type (C57BL6), NALP3 -, IPAF- and ASC-deficient mice were generated and used for experiments as indicated.
Stimulations were carried out in serum free DMEM medium. Microglial cells and macrophages were primed with 100 U/ml IFNγ (Griess assay, TNF ELISA, real-time quantitative PCR) or 100 ng/ml ultrapure LPS (IL-1β ELISA, FLICA, ASC-CFP microglia cell line assay, Western blot) 1-3 h prior to stimulation with Aβ, revAβ, zymosan, ATP or transfection with dAdT.
Cell culture supernatants were assayed for IL-1β and TNFα using ELISA kits from R&D Systems (Minneapolis, Minn.) according to the manufacturer's instructions. Nitric oxide was measured by Griess reaction of nitrites accumulated in the supernatants using chemicals from Sigma.

Aβ 1-42 peptide
IL-1β release into supernatants induced by the peptide: time-dependent release of IL-1β
IL-1β release into supernatants induced by the peptide (listed as fibrillar Aβ): early and pronounced IL-1β release
